One assay has as its system strain hCg-6. Kind of assay: Antibiotic sensitivity of the strain hCg-6. Format: cell-based, Pseudoalteromonas hCg-6. Also noted: key to Sensitive to: +: Positive; −: negative; f: slight reaction.
In assay [1] the test system is collection of strains of Vibrio splendidus isolated from oysters. Nature of the assay: MIC in liquid medium on a collection of Vibrio splendidus strains isolated from oysters. Format: cell-based. Particulars: collection of V. splendidus strains. As to the method: The cyclolipopeptide no. 2 was tested on a collection of strains of Vibrio splendidus isolated from oysters. It has minimum inhibitory concentrations from 1.56 to 50 μM. The MICs were defined in a liquid medium by using the procedure of Wiegand, Hilpert, and Hancock 2008.

A further assay concerns V. splendidus LGP 32. Kind of assay: MIC in liquid medium. Format: cell-based. The conditions noted are these: 24 h. As to the method: (§1) The minimum inhibitory concentration (MIC) of the compounds nos. 1, 2, 3, 5, 7 and 8 was evaluated in a liquid medium following the procedure of Wiegand, Hilpert, and Hancock 2008. The spectrum of the target bacteria was extended to certain human pathogens such as the bacteria Salmonella enterica, a clinical strain of Escherichia coli having a beta-3-lactamase activity with an extended spectrum and Pseudomonas aeruginosa. After 24 h of incubation at an optimum temperature, the MICs are evaluated visually.

Assay [2] concerns E. coli β résistante P7 (clinical strain). Kind of assay: MIC in liquid medium. Format: cell-based. Particulars: 24 h. On the procedure: as §1
Another assay deals with A. caviae CIP 7616. Nature of the assay: MIC in liquid medium. Format: cell-based. Particulars: 24 h. On the procedure: as §1
Another assay deals with E. coli ML35. Kind of assay: MIC in liquid medium. Format: cell-based. The conditions noted are these: 24 h. On the procedure:
as §1

Assay [3] relates to Pseudomonas aeruginosa ATCC 27853. Kind of assay: MIC in liquid medium. Format: cell-based. Particulars: 24 h. As to the method: as §1
Another assay concerns S. enterica CIP 8297. Kind of assay: MIC in liquid medium. Format: cell-based. The conditions noted are these: 24 h. As to the method:
as §1

The test system of the next assay is E. coli SBS363. Nature of the assay: MIC in liquid medium. Format: cell-based. The conditions noted are these: 24 h. On the procedure: as §1
A further assay has as its system Y. ruckeri ATCC 29473. Nature of the assay: MIC in liquid medium. Format: cell-based. Particulars: 24 h. On the procedure: as §1
In a further assay the test system is V. harveyi ORM4. Nature of the assay: MIC in liquid medium. The conditions noted are these: 24 h. Format: cell-based. As to the method:
as §1

The next assay deals with A. hydrophila CIP 7614. Nature of the assay: MIC in liquid medium. Format: cell-based. Particulars: 24 h. On the procedure: as §1

Values after ≈ are worked out from the molar mass of the structure shown. Where two headings read alike, the source gives them in different places.

For `CC1(C)S[C@@H]2[C@H](NC(=O)[C@H](N)c3ccc(O)cc3)C(=O)N2[C@H]1C(=O)O` [amoxicillin], in the assay on strain hCg-6, the “resistance/sensitivity of the strain hCg-6” value (from here on “resistance/sensitivity”) is listed as “sensitive”.
Turning to `CO/N=C(\C(=O)N[C@@H]1C(=O)N2C(C(=O)[O-])=C(C[n+]3cccc4c3CCCC4)CS[C@H]12)c1csc(N)n1` [cefquinom], the “resistance/sensitivity” value in the assay on strain hCg-6 is “sensitive”.
Still for that read-out and setting: the same measure for `CC1=C(C(=O)O)N2C(=O)[C@@H](NC(=O)[C@H](N)c3ccccc3)[C@H]2SC1` [cephalexin]: “resistant”.
In the case of `CC=C1NC(=O)C(NC(=O)CC(O)CCCCCCC)C(O)CNC(=O)C(C(O)CN)NC(=O)C(C(O)CN)NC(=O)C(CCCNC(=N)N)NC(=O)C(CC(C)CC)NC(=O)C(CCN)NC1=O` (stereo not shown) [cyclolipopeptide 2], in assay [1], the minimum inhibitory concentrations was in the range of 1.56 to 50 µM. Besides, the MIC against V. splendidus LGP 32 was found to be 4.4 µM (≈ 4.33 µg/mL); in [2], 8.8 µM (≈ 8.67 µg/mL); against A. caviae CIP 7616 it was 17.6 µM (≈ 17.3 µg/mL); against E. coli ML35, 35 µM (≈ 34.5 µg/mL); in assay [3], 35.2 µM (≈ 34.7 µg/mL); in the assay on S. enterica CIP 8297, 1.4 µM (≈ 1.38 µg/mL). The MIC came to 0.1 µM (≈ 0.0985 µg/mL) against E. coli SBS363 and 1.1 µM (≈ 1.08 µg/mL) in the assay on Y. ruckeri ATCC 29473.
In the case of `CC=C1NC(=O)C(NC(=O)CCCCCCC)C(O)CNC(=O)C(C(O)CN)NC(=O)C(C(O)CN)NC(=O)C(CCCNC(=N)N)NC(=O)C(CC(C)CC)NC(=O)C(CCN)NC1=O` (stereo not shown) [cyclolipopeptide 3], the MIC against V. splendidus LGP 32 amounted to 50 µM (≈ 47.1 µg/mL); in the assay on E. coli ML35, 100 µM (≈ 94.1 µg/mL); in the assay with V. harveyi ORM4, 50 µM (≈ 47.1 µg/mL); with S. enterica CIP 8297, 12.5 µM (≈ 11.8 µg/mL); against E. coli SBS363 it was 50 µM (≈ 47.1 µg/mL); in the assay with Y. ruckeri ATCC 29473, 50 µM (≈ 47.1 µg/mL).
As for `CC=C1NC(=O)C(NC(=O)CCCCCCCC)C(O)CNC(=O)C(C(O)CN)NC(=O)C(C(O)CN)NC(=O)C(CCCNC(=N)N)NC(=O)C(CC(C)CC)NC(=O)C(CCN)NC1=O` (stereo not shown) [cyclolipopeptide 5], the minimal inhibitory concentration (MIC) against V. splendidus LGP 32 was found to be 6.3 µM (≈ 6.02 µg/mL); in the assay with E. coli ML35, 50 µM (≈ 47.8 µg/mL); in the assay with A. hydrophila CIP 7614, 25 µM (≈ 23.9 µg/mL); with V. harveyi ORM4, 6.3 µM (≈ 6.02 µg/mL); in the assay with S. enterica CIP 8297, 6.3 µM (≈ 6.02 µg/mL); against E. coli SBS363, 25 µM (≈ 23.9 µg/mL). In the assay on Y. ruckeri ATCC 29473, the MIC stood at 6.3 µM (≈ 6.02 µg/mL).
With `CCN1CCN(c2cc3c(cc2F)c(=O)c(C(=O)O)cn3C2CC2)CC1` [enrofloxacin], the “resistance/sensitivity” value in the assay with strain hCg-6 is reported as “sensitive”.
Consider `CCn1cc(C(=O)O)c(=O)c2cc3c(cc21)OCO3` [oxolinic acid], for which the “resistance/sensitivity” value in the assay on strain hCg-6 is reported as “sensitive”.
For Polymyxin B [reference compound], the MIC against V. splendidus LGP 32 was 1.6 µM; in [2] it was 1.6 µM; in the assay on A. caviae CIP 7616, 3.1 µM; against E. coli ML35 it was 3.1 µM; against A. hydrophila CIP 7614, 0.8 µM; against V. harveyi ORM4, 25 µM. For the same compound, the MIC in [3] was determined as 1.6 µM; with S. enterica CIP 8297 it was 0.8 µM; against E. coli SBS363, 0.2 µM; in the assay with Y. ruckeri ATCC 29473, 0.4 µM.
gentamycin: the “resistance/sensitivity” value in the assay on strain hCg-6 was “sensitive”.
Consider polymyxin, for which the “resistance/sensitivity” value with strain hCg-6 (50 μg) is “resistant”. In the assay on strain hCg-6 (300 ED), the “Sensitive to” value is given as “−”.

Source of the values: patent US9956262B2, “Use of a bacterium isolated from the genus Pseudoalteromonas, cyclolipopeptides and uses thereof” (priority 2013, dated 2018).
